Measurements as given in the supplement of paper PMC13380429.

Tests used:
Settings in all cases: 72 h
Caco-2 [1] = assay: cell viability relative to DMSO; higher = less toxic
Calu-3 [2] = assay: as above
HepG2 [3] = assay: as above
U2OS [4] = assay: as above
Vero E6 [5] = assay: as above
Caco-2 [6] = assay: relative viability EC50 (midpoint between 100% and the lowest measured viability); higher = less toxic
Calu-3 [7] = assay: as above
HepG2 [8] = assay: as above
U2OS [9] = assay: as above
Vero E6 [10] = assay: as above
Caco-2 [11] = assay: drug sensitivity score (DSS) for viability; higher = more toxic; extreme values may be limits of the assay
Calu-3 [12] = assay: as above
HepG2 [13] = assay: as above
U2OS [14] = assay: as above
Vero E6 [15] = assay: as above

Row | SMILES | cell viability (Caco-2 [1]; 1 nM) | cell viability (Caco-2 [1]; 10 nM) | cell viability (Caco-2 [1]; 100 nM) | cell viability (Caco-2 [1]; 1000 nM) | cell viability (Caco-2 [1]; 10000 nM) | cell viability (Calu-3 [2]; 1 nM) | cell viability (Calu-3 [2]; 10 nM) | cell viability (Calu-3 [2]; 100 nM) | cell viability (Calu-3 [2]; 1000 nM) | cell viability (Calu-3 [2]; 10000 nM) | cell viability (HepG2 [3]; 1 nM) | cell viability (HepG2 [3]; 10 nM) | cell viability (HepG2 [3]; 100 nM) | cell viability (HepG2 [3]; 1000 nM) | cell viability (HepG2 [3]; 10000 nM) | cell viability (U2OS [4]; 1 nM) | cell viability (U2OS [4]; 10 nM) | cell viability (U2OS [4]; 100 nM) | cell viability (U2OS [4]; 1000 nM) | cell viability (U2OS [4]; 10000 nM) | cell viability (Vero E6 [5]; 1 nM) | cell viability (Vero E6 [5]; 10 nM) | cell viability (Vero E6 [5]; 100 nM) | cell viability (Vero E6 [5]; 1000 nM) | cell viability (Vero E6 [5]; 10000 nM) | relative viability EC50 (Caco-2 [6]) | relative viability EC50 (Calu-3 [7]) | relative viability EC50 (HepG2 [8]) | relative viability EC50 (U2OS [9]) | relative viability EC50 (Vero E6 [10]) | drug sensitivity score (Caco-2 [11]) | drug sensitivity score (Calu-3 [12]) | drug sensitivity score (HepG2 [13]) | drug sensitivity score (U2OS [14]) | drug sensitivity score (Vero E6 [15])
1 | Clc1cccc(N2CCNCC2)c1 [mCPP] | 88.9% | 97% | 96.1% | 92.4% | 98.4% | 91.4% | 102% | 104% | 104% | 100% | 97.7% | 95.3% | 96% | 100% | 105% | 99.8% | 93.3% | 103% | 97.1% | 93.9% | 88.9% | 103% | 96.7% | 100% | 106% | > 10 µM | > 10 µM | > 10 µM | > 10 µM | > 10 µM | 0 | 0 | 0 | 0 | 0
2 | CC(C)(CC(=O)N1CCCC1)NCC(=O)N1C[C@@H](F)C[C@H]1C#N [DBPR108] | 91.1% | 93.5% | 86.4% | 95.6% | 95% | 107% | 97.5% | 100% | 98.9% | 95% | 96.2% | 102% | 94.6% | 104% | 105% | 97.9% | 98.1% | 99.1% | 100% | 92.9% | 99.6% | 99.9% | 104% | 92.2% | 102% | > 10 µM | > 10 µM | > 10 µM | > 10 µM | > 10 µM | 0 | 0 | 0 | 0 | 0
3 | COc1ccc(CN(CCN(C)C)c2ccccn2)cc1 [mepyramine] | – | – | – | – | – | 101% | 113% | 112% | 106% | 93% | 99.8% | 95.7% | 91% | 102% | 92.8% | 98% | 99.8% | 103% | 101% | 95.9% | 95.7% | 93.1% | 95.1% | 98.5% | 102% | – | > 10 µM | > 10 µM | > 10 µM | > 10 µM | – | 0 | 0 | 0 | 0
4 | O=c1c2ccccc2[se]n1-c1ccccc1 [ebselen] | 88% | 102% | 107% | 88.5% | 100% | 107% | 93.5% | 91.3% | 87.6% | 111% | – | – | – | – | – | 97.4% | 98.7% | 105% | 97.4% | 102% | 96.4% | 98.5% | 99.4% | 97.6% | 104% | > 10 µM | > 10 µM | – | > 10 µM | > 10 µM | 0 | 0 | – | 0 | 0
5 | CC(C)/N=c1\cc2n(-c3ccc(Cl)cc3)c3ccccc3nc-2cc1Nc1ccc(Cl)cc1 [clofazimine] | 106% | 101% | 98.3% | 84.5% | 60.4% | 101% | 97.6% | 91.3% | 98.1% | 94.4% | 94.1% | 105% | 89.8% | 97% | 68.3% | 98% | 100% | 101% | 98.1% | 91.6% | 101% | 99.6% | 103% | 104% | 91.3% | – | > 10 µM | – | > 10 µM | > 10 µM | 3.8 | 0 | 1.9 | 0 | 0
6 | Cc1ccc(CCCO)c(NCc2ccc3nc(NCCCN4CCOCC4)n(Cc4nc(C)ccc4O)c3c2)c1 | 101% | 97.7% | 97.6% | 101% | 90% | 115% | 96.4% | 104% | 93.6% | 74.8% | 89.5% | 100% | 103% | 109% | 89.1% | 98.1% | 97.1% | 97.6% | 96.5% | 95.1% | 99.6% | 92.7% | 97.7% | 102% | 102% | > 10 µM | – | > 10 µM | > 10 µM | > 10 µM | 0 | 1.9 | 0 | 0 | 0
7 | CCc1nc(-c2cccc(C)c2)c(-c2ccnc(NC(=O)c3ccccc3)c2)s1 [TAK-715] | 97.5% | 102% | 92% | 78.1% | 65.6% | 90.5% | 101% | 91.8% | 93.7% | 78.2% | 93% | 94.6% | 94.6% | 94.6% | 73.5% | 100% | 103% | 98.3% | 93.6% | 85.5% | 93.5% | 102% | 94.8% | 90.6% | 82.2% | – | > 10 µM | – | > 10 µM | > 10 µM | 4.3 | 1 | 1.8 | 0.4 | 0.8
8 | COc1ccc([C@@H]2CC(=O)c3c(O)cc(O)cc3O2)cc1O [hesperetin] | 104% | 88.5% | 92.7% | 104% | 98.4% | 102% | 93.7% | 102% | 93% | 89.2% | – | – | – | – | – | 104% | 96.3% | 97.1% | 99.8% | 102% | 94.9% | 98.7% | 98.9% | 90.1% | 108% | > 10 µM | > 10 µM | – | > 10 µM | > 10 µM | 0 | 0.1 | – | 0 | 0
9 | CN(Cc1cnc2nc(N)nc(N)c2n1)c1ccc(C(=O)N[C@@H](CCC(=O)O)C(=O)O)cc1 [methotrexate] | 98.3% | 99.6% | 97.6% | 67.1% | 66% | 104% | 94.3% | 93.9% | 95.8% | 96.5% | 94.3% | 103% | 105% | 21.8% | 18.6% | 103% | 98.2% | 98% | 92.1% | 97.2% | 103% | 99.1% | 96.1% | 14.7% | 14.3% | – | > 10 µM | 0.379 µM | > 10 µM | 0.284 µM | 6.1 | 0 | 14 | 0 | 16.1
10 | Oc1c(Cl)cc(Cl)c(Cl)c1Cc1c(O)c(Cl)cc(Cl)c1Cl [hexachlorophene] | 95% | 97.1% | 92.3% | 91.6% | 20.9% | 107% | 103% | 107% | 99.4% | 94.2% | 98% | 98.3% | 94% | 94.4% | 23.8% | 97.8% | 96.8% | 92.9% | 96.1% | 70.9% | 102% | 102% | 100% | 99.9% | 82% | 2.29 µM | > 10 µM | 2.57 µM | – | > 10 µM | 5.8 | 0 | 5.1 | 1.9 | 0.5
11 | CNCCC=C1c2ccccc2CCc2ccccc21 [nortriptyline] | 108% | 86.1% | 96.4% | 97.7% | 70% | 100% | 98.7% | 99.4% | 96.5% | 82.1% | 110% | 106% | 112% | 119% | 65% | 99.5% | 96.8% | 98.1% | 97.4% | 93.8% | 106% | 106% | 102% | 90% | 79.8% | – | > 10 µM | – | > 10 µM | > 10 µM | 1.6 | 0.9 | 1 | 0 | 1.6
12 | Cn1nnc(-c2ccc(-c3ccc(N4C[C@H](COP(=O)(O)O)OC4=O)cc3F)cn2)n1 [tedizolid-phosphate] | 108% | 97.8% | 94.2% | 87.3% | 87.9% | 102% | 103% | 114% | 86.1% | 97.6% | 106% | 96.9% | 91% | 71.7% | 53.1% | 98.8% | 98.5% | 97.1% | 93.8% | 93.4% | 98.5% | 101% | 97.9% | 89.3% | 89.8% | > 10 µM | > 10 µM | – | > 10 µM | > 10 µM | 0.8 | 0.9 | 6.1 | 0 | 0.2
13 | O=Cc1ccc(CO)o1 [5-HMF] | – | – | – | – | – | 96.6% | 98.2% | 97.3% | 94.5% | 104% | – | – | – | – | – | 99.6% | 99.8% | 104% | 102% | 106% | 103% | 99.9% | 99.7% | 105% | 97.3% | – | > 10 µM | – | > 10 µM | > 10 µM | – | 0 | – | 0 | 0
14 | O=C1N[C@@H]2[C@@H](O)[C@@H](O)[C@H](O)[C@@H](CO)N2C1=O [kifunensine] | 98.5% | 105% | 91.8% | 75.1% | 67.5% | 100% | 106% | 103% | 90.7% | 93% | 95.6% | 103% | 99.4% | 98.7% | 82.6% | 104% | 102% | 96.2% | 97.4% | 99% | 107% | 89.7% | 96.2% | 94.5% | 84.2% | – | > 10 µM | > 10 µM | > 10 µM | > 10 µM | 4.8 | 0 | 0.5 | 0 | 0.3
15 | CC(=O)OC/C=C(C)/C=C/C=C(C)/C=C/C1=C(C)CCCC1(C)C [retinyl-acetate] | 112% | 99% | 104% | 95.9% | 114% | 93.7% | 90.4% | 112% | 90.7% | 93.3% | – | – | – | – | – | – | – | – | – | – | 103% | 103% | 102% | 98% | 102% | > 10 µM | > 10 µM | – | – | > 10 µM | 0 | 0 | – | – | 0
16 | O=C1C[C@@H](c2ccc(O)cc2)Oc2cc(O)ccc21 [MF-101] | 81.1% | 99.7% | 92.3% | 103% | 78.1% | 103% | 112% | 106% | 104% | 99.4% | 95.8% | 93.7% | 103% | 97.6% | 90.4% | 98.4% | 95.4% | 96.4% | 99.7% | 95.9% | 101% | 102% | 95.3% | 92.1% | 99.8% | – | > 10 µM | > 10 µM | > 10 µM | > 10 µM | 0.4 | 0 | 0 | 0 | 0
